Reference: US9399626B2, “2-thiopyrimidinones” (Pfizer Inc., priority 2011, dated 2016)
Structures can show the parent of a compound that is named as a salt.

target: T1, MPO (purified from human polynuclear leukocytes) (Homo sapiens, UniProt P05164); assay: MPO Amplex Red Activity Assay; type: biochemical; conditions: Table 1, 2 μM H2O2, pH 7.4
T1 construct: purified from human polynuclear leukocytes; purchased Calbiochem/EMD Biosciences; host or cells: human polynuclear leukocytes (natural source)
T1 sequence (P05164 279-745 limits assumed): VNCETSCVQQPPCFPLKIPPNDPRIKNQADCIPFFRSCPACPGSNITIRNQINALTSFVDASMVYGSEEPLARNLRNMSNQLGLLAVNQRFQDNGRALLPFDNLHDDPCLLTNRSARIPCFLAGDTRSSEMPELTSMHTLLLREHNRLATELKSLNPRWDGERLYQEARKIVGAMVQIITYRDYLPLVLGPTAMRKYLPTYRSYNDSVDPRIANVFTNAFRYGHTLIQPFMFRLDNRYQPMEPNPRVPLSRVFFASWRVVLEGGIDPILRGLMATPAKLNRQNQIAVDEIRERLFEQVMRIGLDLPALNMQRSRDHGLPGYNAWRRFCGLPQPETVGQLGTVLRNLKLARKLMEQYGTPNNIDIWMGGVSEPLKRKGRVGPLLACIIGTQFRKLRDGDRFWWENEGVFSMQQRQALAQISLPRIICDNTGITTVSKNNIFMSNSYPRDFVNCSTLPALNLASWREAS
T1 sequence (P05164 165-273 limits assumed): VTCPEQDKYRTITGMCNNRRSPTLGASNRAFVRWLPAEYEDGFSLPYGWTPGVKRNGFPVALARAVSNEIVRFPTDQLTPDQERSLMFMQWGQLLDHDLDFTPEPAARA
How it was run: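 Human leukocyte MPO […] oxidises 30 μM Amplex Red with 2 μM H2O2 in 50 mM NaPi pH 7.4, 150 mM NaCl, 1 mM DTPA, 2% DMSO. Resorufin fluorescence (ex 530/em 580 nm) read every 20 s, minus catalase background. kobs from the first 600 s, corrected for auto-inactivation, fit versus [I] for kinact/KI.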

MPO kinact/Ki	SMILES
20300 1/s per M	COc1cccc(OC)c1-c1cc(=O)[nH]c(=S)n1CCO [Example 167, 6-(2,6-dimethoxyphenyl)-1-(2-hydroxyethyl)-2-thioxo-2,3-dihydropyrimidin-4(1H)-one]
11300 1/s per M	COCCn1c(-c2csc3ccccc23)cc(=O)[nH]c1=S [Example 324, 6-(1-benzothien-3-yl)-1-(2-methoxyethyl)-2-thioxo-2,3-dihydropyrimidin-4(1H)-one]
3470 1/s per M	COCCn1c(-c2c(F)cccc2OC)cc(=O)[nH]c1=S [Example 60, 6-(2-fluoro-6-methoxyphenyl)-1-(2-methoxyethyl)-2-thioxo-2,3-dihydropyrimidin-4(1H)-one]
14900 1/s per M	NC(=O)Cn1c(-c2cccc3[nH]ccc23)cc(=O)[nH]c1=S [Example 29, 2-[6-(1H-indol-4-yl)-4-oxo-2-thioxo-3,4-dihydropyrimidin-1(2H)-yl]acetamide]
5890 1/s per M	COCCn1c(-c2cc(F)ccc2OC(F)(F)F)cc(=O)[nH]c1=S [Example 346]
4350 1/s per M	COc1ccc(-c2cc(=O)[nH]c(=S)n2CC(O)CO)c(OC)c1 (centres unmarked) [Example 201, 1-(2,3-dihydroxypropyl)-6-(2,4-dimethoxyphenyl)-2-thioxo-2,3-dihydropyrimidin-4(1H)-one]
9210 1/s per M	COc1cc(F)ccc1-c1cc(=O)[nH]c(=S)n1CCN [Example 25, 1-(2-aminoethyl)-6-(4-fluoro-2-methoxyphenyl)-2-thioxo-2,3-dihydropyrimidin-4(1H)-one hydrochloride]
5800 1/s per M	COc1cc(OC)c(-c2cc(=O)[nH]c(=S)n2CCCN)cc1F [Example 108, 1-(3-aminopropyl)-6-(5-fluoro-2,4-dimethoxyphenyl)-2-thioxo-2,3-dihydropyrimidin-4(1H)-one hydrochloride]
378 1/s per M	COCCn1c(-c2ccc(S(=O)(=O)N(C)C)cc2)cc(=O)[nH]c1=S [Example 347, 4-[3-(2-methoxyethyl)-6-oxo-2-thioxo-1,2,3,6-tetrahydropyrimidin-4-yl]-N,N-dimethylbenzenesulfonamide]
1590 1/s per M	COCCn1c(-c2ccc(C#N)cc2OC)cc(=O)[nH]c1=S [Example 70, 3-methoxy-4-[3-(2-methoxyethyl)-6-oxo-2-thioxo-1,2,3,6-tetrahydro-pyrimidin-4-yl]benzonitrile]
15800 1/s per M	COc1ccc(OC)c(-c2cc(=O)[nH]c(=S)n2CCN=C(N)N)c1 [Example 121, 2-{2-[6-(2,5-dimethoxyphenyl)-4-oxo-2-thioxo-3,4-dihydropyrimidin-1(2H)-yl]ethyl}guanidine hydrochloride]
11600 1/s per M	COc1cc(OC)c(-c2cc(=O)[nH]c(=S)n2CCN)cc1F [Example 90, 1-(2-aminoethyl)-6-(5-fluoro-2,4-dimethoxyphenyl)-2-thioxo-2,3-dihydropyrimidin-4(1H)-one hydrochloride]
701 1/s per M	COc1ccc(-c2cc(=O)[nH]c(=S)n2CC(=O)OC(C)(C)C)c(OC)c1 [Example 137, tert-butyl[6-(2,4-dimethoxyphenyl)-4-oxo-2-thioxo-3,4-dihydropyrimidin-1(2H)-yl]acetate]
6230 1/s per M	CCOC(=O)Cn1c(-c2ccc(OC)cc2OC)cc(=O)[nH]c1=S [Example 221, ethyl [6-(2,4-dimethoxyphenyl)-4-oxo-2-thioxo-3,4-dihydropyrimidin-1(2H)-yl]acetate]
2360 1/s per M	COc1ccc(-c2cc(=O)[nH]c(=S)n2CCC(=O)N(C)C)c(OC)c1 [Example 237, 3-[6-(2,4-dimethoxyphenyl)-4-oxo-2-thioxo-3,4-dihydropyrimidin-1(2H)-yl]-N,N-dimethylpropanamide]
4110 1/s per M	COCCn1c(-c2c[nH]c3ncccc23)cc(=O)[nH]c1=S [Example 35, 1-(2-methoxyethyl)-6-(1H-pyrrolo[2,3-b]pyridin-3-yl)-2-thioxo-2,3-dihydropyrimidin-4(1H)-one]

MPO kinact/Ki	SMILES
1750 1/s per M	COCCn1c(-c2ccccc2F)cc(=O)[nH]c1=S [Example 158, 6-(2-fluorophenyl)-1-(2-methoxyethyl)-2-thioxo-2,3-dihydropyrimidin-4(1H)-one]
7640 1/s per M	CSc1ccccc1-c1cc(=O)[nH]c(=S)n1CCO [Example 24, 1-(2-hydroxyethyl)-6-[2-(methylthio)phenyl]-2-thioxo-2,3-dihydropyrimidin-4(1H)-one]
3930 1/s per M	O=c1cc(-c2ccccc2OC(F)(F)F)n(CCO)c(=S)[nH]1 [Example 186, 1-(2-hydroxyethyl)-2-thioxo-6-[2-(trifluoromethoxy)phenyl]-2,3-dihydropyrimidin-4(1H)-one]
1470 1/s per M	COCCn1c(-c2ccccc2C)cc(=O)[nH]c1=S [Example 284, 1-(2-methoxyethyl)-6-(2-methylphenyl)-2-thioxo-2,3-dihydropyrimidin-4(1H)-one]
6710 1/s per M	COCCn1c(-c2ccc3ccccc3c2)cc(=O)[nH]c1=S [Example 276, 1-(2-methoxyethyl)-6-(2-naphthyl)-2-thioxo-2,3-dihydropyrimidin-4(1H)-one]
817 1/s per M	COCCn1c(-c2cc(OC)c(OC)c(OC)c2)cc(=O)[nH]c1=S [Example 342, 1-(2-methoxyethyl)-2-thioxo-6-(3,4,5-trimethoxyphenyl)-2,3-dihydropyrimidin-4(1H)-one]
6310 1/s per M	COc1nc2ccccc2cc1-c1cc(=O)[nH]c(=S)n1CCN [Example 97, 1-(2-aminoethyl)-6-(2-methoxyquinolin-3-yl)-2-thioxo-2,3-dihydropyrimidin-4(1H)-one trifluoroacetate]
12700 1/s per M	COc1ccc(-c2cc(=O)[nH]c(=S)n2CCCCNC(=N)N)c(OC)c1 [Example 253, 1-{4-[6-(2,4-dimethoxyphenyl)-4-oxo-2-thioxo-3,4-dihydropyrimidin-1(2H)-yl]butyl}guanidine]
3270 1/s per M	COCCn1c(-c2ccc(OC)nc2OC)cc(=O)[nH]c1=S [Example 332, 6-(2,6-dimethoxypyridin-3-yl)-1-(2-methoxyethyl)-2-thioxo-2,3-dihydropyrimidin-4(1H)-one]
1910 1/s per M	COCCn1c(-c2ccc(OC)cc2)cc(=O)[nH]c1=S [Example 294, 1-(2-methoxyethyl)-6-(4-methoxyphenyl)-2-thioxo-2,3-dihydropyrimidin-4(1H)-one]
9820 1/s per M	COCCn1c(-c2ccc(Cl)cc2OC)cc(=O)[nH]c1=S [Example 335, 6-(4-chloro-2-methoxyphenyl) 1-(2-methoxyethyl)-2-thioxo-2,3-dihydropyrimidin-4(1H)-one]
4000 1/s per M	COc1ccc(-c2cc(=O)[nH]c(=S)n2CC2CCN(C(=N)N)C2)c(OC)c1 (centres unmarked) [Example 259, 3-{[6-(2,4-dimethoxyphenyl)-4-oxo-2-thioxo-3,4-dihydropyrimidin-1(2H)-yl]methyl}pyrrolidine-1-carboximidamide trifluoroacetate]
3000 1/s per M	COc1ccc(-c2cc(=O)[nH]c(=S)n2CCNC(N)=O)c(OC)c1 [Example 223, 1-{2-[6-(2,4-dimethoxyphenyl)-4-oxo-2-thioxo-3,4-dihydropyrimidin-1(2H)-yl]ethyl}urea]
2480 1/s per M	COCCn1c(-c2cccc3ncccc23)cc(=O)[nH]c1=S [Example 321, 1-(2-methoxyethyl)-6-quinolin-5-yl-2-thioxo-2,3-dihydropyrimidin-4(1H)-one]
1400 1/s per M	COCCn1c(-c2cccc(S(=O)(=O)N(C)C)c2)cc(=O)[nH]c1=S [Example 348, 3-[3-(2-methoxyethyl)-6-oxo-2-thioxo-1,2,3,6-tetrahydropyrimidin-4-yl]-N,N-dimethylbenzenesulfonamide]

same assay, conditions: Table 1A, 2 μM H2O2, pH 7.4

MPO kinact/Ki	SMILES
17200 1/s per M	COc1ccc(F)cc1-c1cc(=O)[nH]c(=S)n1CCCNC(=N)NC#N [Example 447, 1-cyano-3-{3-[6-(5-fluoro-2-methoxyphenyl)-4-oxo-2-thioxo-3,4-dihydropyrimidin-1(2H)-yl]propyl}guanidine]
6580 1/s per M	NC(=O)Cn1c(-c2cccc3c2OCC3)cc(=O)[nH]c1=S [Example 364, 2-[6-(2,3-dihydro-1-benzofuran-7-yl)-4-oxo-2-thioxo-3,4-dihydropyrimidin-1(2H)-yl]acetamide]
4480 1/s per M	COc1cccc(-c2cc(=O)[nH]c(=S)n2CC(N)=O)c1OC [Example 416, 2-[6-(2,3-dimethoxyphenyl)-4-oxo-2-thioxo-3,4-dihydropyrimidin-1(2H)-yl]acetamide]
9440 1/s per M	COc1ccc(-c2cc(=O)[nH]c(=S)n2CC(=O)N[C@H]2C[C@@H](N)C2)c(OC)c1 [Example 430, N-(cis-3-aminocyclobutyl)-2-[6-(2,4-dimethoxyphenyl)-4-oxo-2-thioxo-3,4-dihydropyrimidin-1(2H)-yl]acetamide]
3980 1/s per M	NC(=O)Cn1c(-c2cc(F)ccc2OCCO)cc(=O)[nH]c1=S [Example 412, 2-{6-[5-fluoro-2-(2-hydroxyethoxy)phenyl]-4-oxo-2-thioxo-3,4-dihydropyrimidin-1(2H)-yl}acetamide]
15000 1/s per M	O=c1cc(-c2cc(F)ccc2OCCO)n(CCO)c(=S)[nH]1 [Example 411, 6-[5-fluoro-2-(2-hydroxyethoxy)phenyl]-1-(2-hydroxyethyl)-2-thioxo-2,3-dihydropyrimidin-4(1H)-one]
5360 1/s per M	NCCn1c(-c2cc(Cl)ccc2OCCO)cc(=O)[nH]c1=S [Example 427, 1-(2-aminoethyl)-6-[5-chloro-2-(2-hydroxyethoxy)phenyl]-2-thioxo-2,3-dihydropyrimidin-4(1H)-one]
